Some test systems named below: SK-OV-3 ovarian; SR leukemia; UACC-62 melanoma; SF-268 CNS; TK-10 renal; OVCAR-8 ovarian; HCT-116 colon; A549 NSCLC; NCI-H460 lung; PC-3 prostate.
Assay in all cases: inhibition of tumour cell growth, NCI panel, 48 h

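Exposure lasted 48 hours, with cells grown in 96-well plates and compounds tested at five concentrations. GI50 is the concentration that inhibits growth by half. TGI denotes the concentration required for complete inhibition of growth.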

For `Cc1cn(C2C=CC(=O)C(C)O2)c(=O)[nH]c1=O` (stereo not given), the TGI with SK-OV-3 ovarian is over 100 µM; in the assay on SR leukemia, 43.8 µM; in the assay on UACC-62 melanoma, 29.1 µM; in the assay on SF-268 CNS, 33.5 µM; in the assay with TK-10 renal, 28.5 µM; with OVCAR-8 ovarian, 35.5 µM. Moreover, the TGI with HCT-116 colon was 24.6 µM; in the assay on A549 NSCLC, over 100 µM; with NCI-H460 lung, 35.5 µM.
On to `COc1cc(NCC(C#N)C#N)ccc1N=Nc1ccc([N+](=O)[O-])cc1`, for which the TGI in the assay with SK-OV-3 ovarian, in the assay on SR leukemia, with UACC-62 melanoma, in the assay with SF-268 CNS, in the assay on TK-10 renal and with OVCAR-8 ovarian was over 100 µM in each case. Also, the TGI in the assay with HCT-116 colon, in the assay with A549 NSCLC and in the assay with NCI-H460 lung was over 100 µM each time.
On to `CSC(=S)N(C)NC(=O)c1cccc(C(=O)NN(C)C(=S)SC)n1`, for which the TGI was over 100 µM in the assay with SR leukemia; 55.8 µM in the assay with UACC-62 melanoma; 43.9 µM in the assay with SF-268 CNS; over 100 µM with OVCAR-8 ovarian; over 100 µM in the assay on HCT-116 colon; 89 µM in the assay on A549 NSCLC. The same compound returned a TGI in the assay with NCI-H460 lung of over 100 µM.
Regarding `O=C(N/C(=C\c1ccc([N+](=O)[O-])cc1)c1nc2[nH]c(=S)[nH]c(=O)c2[nH]1)c1ccccc1`, the TGI in the assay with SK-OV-3 ovarian, in the assay with SR leukemia, with UACC-62 melanoma, in the assay on SF-268 CNS, in the assay on TK-10 renal and in the assay on OVCAR-8 ovarian was over 100 µM each time. Besides, in the assay with A549 NSCLC, the TGI was over 100 µM.
In the case of `Cc1cc(N(CCCNc2ccnc3cc(Cl)ccc23)Cc2cccs2)nc(Cl)n1`, the GI50 was 7.05 µM with SK-OV-3 ovarian; 5.15 µM with UACC-62 melanoma; 3.32 µM in the assay with PC-3 prostate; 10.5 µM with SF-268 CNS; 5.96 µM with TK-10 renal; 4.83 µM with OVCAR-8 ovarian. Also, the results for the GI50 in the assay with HCT-116 colon, in the assay on A549 NSCLC and in the assay on NCI-H460 lung were 1.08 µM, 7.11 µM and 4.03 µM, respectively. The TGI with SK-OV-3 ovarian was 22.1 µM; in the assay with UACC-62 melanoma, 21 µM; in the assay on PC-3 prostate, 22.9 µM; with SF-268 CNS, 29.7 µM; with TK-10 renal it was 20.9 µM; in the assay on OVCAR-8 ovarian it was 34.9 µM. Also, the TGI in the assay with HCT-116 colon amounted to 12.8 µM; in the assay with A549 NSCLC, 23.1 µM; with NCI-H460 lung, 18.3 µM.
Regarding `COc1cc(C2[C@H]3C(=O)N(c4ccc(Cc5ccc(N6C(=O)[C@@H]7ON(c8ccccc8)C(c8cc(OC)c(OC)c(OC)c8)[C@@H]7C6=O)cc5)cc4)C(=O)[C@H]3ON2c2ccccc2)cc(OC)c1OC` (stereo not given in full), the TGI with SK-OV-3 ovarian, in the assay with SR leukemia, with UACC-62 melanoma, in the assay on SF-268 CNS, in the assay with TK-10 renal and in the assay with OVCAR-8 ovarian was over 100 µM throughout. The TGI in the assay with HCT-116 colon, with A549 NSCLC and in the assay on NCI-H460 lung was over 100 µM in each case.
In the case of `COC1=NN2C(OC)(c3ccccc3)c3c(-c4ccccc4)sc(-c4ccccc4)c3C2(c2ccccc2)S1` (stereo not given), the TGI in the assay on SK-OV-3 ovarian, with SR leukemia, in the assay with UACC-62 melanoma, in the assay with SF-268 CNS, in the assay with TK-10 renal and in the assay on OVCAR-8 ovarian was over 100 µM each time. The TGI in the assay on HCT-116 colon, with A549 NSCLC and in the assay with NCI-H460 lung was over 100 µM in each case.
On to `CSc1nc2c(nc(N)n2C2OCC(O)C(O)C2O)c(=O)[nH]1` (stereo not given), for which the TGI in the assay on SK-OV-3 ovarian, in the assay with SR leukemia, in the assay with UACC-62 melanoma, in the assay on SF-268 CNS, with TK-10 renal and with OVCAR-8 ovarian was over 100 µM each time. Moreover, the TGI in the assay on HCT-116 colon, in the assay on A549 NSCLC and in the assay with NCI-H460 lung was over 100 µM throughout.
`CC(=O)NNC(=O)c1nn(-c2ccc(Cl)cc2)cc1OC(C)=O`: the GI50 with SK-OV-3 ovarian was 49.5 µM; in the assay on UACC-62 melanoma, 19.8 µM; in the assay with PC-3 prostate it was 5.07 µM; in the assay on SF-268 CNS it was 8.85 µM; in the assay on TK-10 renal, 15.6 µM; in the assay with OVCAR-8 ovarian it was 22.3 µM. The GI50 in the assay with HCT-116 colon is 14.6 µM; in the assay on A549 NSCLC, 18.8 µM; in the assay on NCI-H460 lung, 5.76 µM. Moreover, the TGI was over 100 µM with SK-OV-3 ovarian; over 65.3 µM with UACC-62 melanoma; over 25 µM in the assay on PC-3 prostate; over 71.3 µM with SF-268 CNS; over 100 µM in the assay with TK-10 renal; over 100 µM in the assay with OVCAR-8 ovarian. Besides, the TGI in the assay on HCT-116 colon, in the assay with A549 NSCLC and in the assay with NCI-H460 lung was over 100 µM in each case.
Turning to `COc1ccc(/C=C/c2nc(N3CCOCC3)c3cc(F)c(F)cc3n2)cc1OC`, the GI50 in the assay on SK-OV-3 ovarian is 11 µM; in the assay with UACC-62 melanoma, 3.55 µM; in the assay on PC-3 prostate, 2.66 µM; with SF-268 CNS it was 9.85 µM; in the assay on TK-10 renal it was 4.84 µM; in the assay with OVCAR-8 ovarian, 4.57 µM. Besides, the GI50 is 3.53 µM in the assay on HCT-116 colon, 5.87 µM in the assay on A549 NSCLC and 5.86 µM with NCI-H460 lung. The TGI is over 100 µM with SK-OV-3 ovarian; over 100 µM in the assay on UACC-62 melanoma; 33.9 µM in the assay with PC-3 prostate; over 100 µM with SF-268 CNS; over 100 µM with TK-10 renal; over 100 µM in the assay with OVCAR-8 ovarian. The TGI with HCT-116 colon, with A549 NSCLC and with NCI-H460 lung was over 100 µM throughout.
Regarding `CC(C)C(/C=C/c1ccccc1)=N\NC(=O)N/N=C(/C=C/c1ccccc1)C(C)C`, the TGI in the assay on SK-OV-3 ovarian was over 100 µM; with SR leukemia it was 87.2 µM; in the assay on UACC-62 melanoma, over 100 µM; in the assay on SF-268 CNS, over 100 µM; in the assay on TK-10 renal, over 100 µM; in the assay on OVCAR-8 ovarian, over 100 µM. Moreover, the results for the TGI with HCT-116 colon, in the assay on A549 NSCLC and in the assay with NCI-H460 lung were 45 µM, over 100 µM and 33.4 µM, respectively.
In the case of `CCC[CH2][Sn]1([CH2]CCC)[O]C(=O)C[S]1`, the GI50 was 4.63 µM with SK-OV-3 ovarian; 1.13 µM in the assay with SR leukemia; 1.35 µM in the assay on UACC-62 melanoma; 1.67 µM in the assay with SF-268 CNS; 1.55 µM in the assay on TK-10 renal; 2.11 µM with OVCAR-8 ovarian. In addition, the GI50 was 1.91 µM in the assay on HCT-116 colon, 8.9 µM in the assay with A549 NSCLC and 4.09 µM with NCI-H460 lung. Also, the TGI in the assay on SK-OV-3 ovarian turned out to be 14 µM; in the assay with SR leukemia, 7.09 µM; in the assay with UACC-62 melanoma, 2.89 µM; in the assay on SF-268 CNS, 4.83 µM; in the assay with TK-10 renal it was 2.92 µM; in the assay on OVCAR-8 ovarian, 5.46 µM. Also, the TGI with HCT-116 colon is 4.49 µM; in the assay on A549 NSCLC it was 23.5 µM; in the assay with NCI-H460 lung, 16.9 µM.

Source of the values: PubChem BioAssay (NCI).
